Data from US8377939B2, “Oxadiazole derivatives and their use as metabotropic glutamate receptor potentiators 842” (AstraZeneca AB, priority 2007, dated 2013).
Converted amounts (≈) assume the structure as drawn.

Assays:
[1] = biological target: hERG ion channel (Homo sapiens, UniProt Q12809); assay: hERG activity (process of Bridgland-Taylor et al.); type: cell-based
Method: hERG activity was assessed using the process described by Bridgland-Taylor, M. H., et al, J. Pharm. Tox. Methods 54 (2006) 189-199.

[2] = Aqueous solubility in pH 7.4 phosphate buffer; type: physicochemical; conditions: thermodynamic from solid, equilibration 24 h at 25° C.
Method: Solubility was determined in pH 7.4 phosphate buffer after equilibration for 24 h at 25° C. and HPLC-UV and LC-MSMS were used for quantitation.

[3] = biological target: T1, human mGluR2 (Homo sapiens, UniProt Q14416); assay: [35S]-GTPγS binding assay, allosteric activator activity with CHO cell membranes; type: biochemical; conditions: membranes of CHO cells expressing human mGluR2, 1 μM glutamate; read-out: GTPgS EC50
T1 construct: expressed in transfected cells; host or cells: CHO cells, stably transfected; membranes
T1 sequence (Q14416 19-872): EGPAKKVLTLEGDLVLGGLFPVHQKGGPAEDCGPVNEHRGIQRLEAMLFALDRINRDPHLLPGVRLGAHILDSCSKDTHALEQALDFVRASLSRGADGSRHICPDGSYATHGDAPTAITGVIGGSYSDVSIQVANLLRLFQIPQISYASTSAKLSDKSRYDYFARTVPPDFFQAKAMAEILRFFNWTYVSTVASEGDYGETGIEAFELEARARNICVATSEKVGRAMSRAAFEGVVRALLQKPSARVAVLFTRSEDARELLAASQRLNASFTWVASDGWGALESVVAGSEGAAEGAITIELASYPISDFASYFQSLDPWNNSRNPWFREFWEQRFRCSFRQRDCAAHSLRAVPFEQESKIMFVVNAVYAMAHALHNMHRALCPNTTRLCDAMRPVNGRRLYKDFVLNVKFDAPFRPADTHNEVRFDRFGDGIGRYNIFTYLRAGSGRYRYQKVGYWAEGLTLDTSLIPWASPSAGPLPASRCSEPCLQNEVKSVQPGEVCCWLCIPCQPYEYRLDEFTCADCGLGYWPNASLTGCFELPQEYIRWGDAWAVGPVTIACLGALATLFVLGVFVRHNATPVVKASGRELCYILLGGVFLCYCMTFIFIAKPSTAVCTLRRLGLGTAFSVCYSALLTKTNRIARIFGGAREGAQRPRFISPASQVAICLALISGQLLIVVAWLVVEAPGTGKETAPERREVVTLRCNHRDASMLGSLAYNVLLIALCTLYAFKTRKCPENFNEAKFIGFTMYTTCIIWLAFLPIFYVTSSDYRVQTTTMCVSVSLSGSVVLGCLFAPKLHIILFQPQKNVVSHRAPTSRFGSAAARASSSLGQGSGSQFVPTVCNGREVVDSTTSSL
Method: A [^35S]-GTPγS binding assay was used to functionally assay mGluR2 receptor activation. The allosteric activator activity of compounds at the human mGluR2 receptor were measured using a [^35S]-GTPγS binding assay with membranes prepared from CHO cells which stably express the human mGluR2. The assay is based upon the principle that agonists bind to G-protein coupled receptors to stimulate GDP-GTP exchange at the G-protein. Since [^35S]-GTPγS is a non-hydrolyzable GTP analog, it can be used to provide an index of GDP-GTP exchange and, thus, receptor activation. The GTPγS binding assay therefore provides a quantitative measure of receptor activation.
Membranes were prepared from CHO cells stably transfected with human mGluR2. Membranes (30 μg protein) were incubated with test compound (3 nM to 300 μM) for 15 minutes at room temperature prior to the addition of 1 μM glutamate, and incubated for 30 min at 30° C. in 500 μl assay buffer (20 mM HEPES, 100 mM NaCl, 10 mM MgCl2), containing 30 μM GDP and 0.1 nM [^35S]-GTPγS (1250 Ci/mmol). Reactions were carried out in triplicate in 2 ml polypropylene 96-well plates. Reactions were terminated by vacuum filtration using a Packard 96-well harvester and Unifilter-96, GF/B filter microplates. The filter plates were washed 4×1.5 ml with ice-cold wash buffer (10 mM sodium phosphate buffer, pH 7.4). The filter plates were dried and 35 μl of scintillation fluid (Microscint 20) was added to each well. The amount of radioactivity bound was determined by counting plates on the Packard TopCount. Data was analyzed using GraphPad Prism, and EC50 and Emax values (relative to the maximum glutamate effect) were calculated using non-linear regression.

Chain of hERG ion channel (Q12809 whole entry): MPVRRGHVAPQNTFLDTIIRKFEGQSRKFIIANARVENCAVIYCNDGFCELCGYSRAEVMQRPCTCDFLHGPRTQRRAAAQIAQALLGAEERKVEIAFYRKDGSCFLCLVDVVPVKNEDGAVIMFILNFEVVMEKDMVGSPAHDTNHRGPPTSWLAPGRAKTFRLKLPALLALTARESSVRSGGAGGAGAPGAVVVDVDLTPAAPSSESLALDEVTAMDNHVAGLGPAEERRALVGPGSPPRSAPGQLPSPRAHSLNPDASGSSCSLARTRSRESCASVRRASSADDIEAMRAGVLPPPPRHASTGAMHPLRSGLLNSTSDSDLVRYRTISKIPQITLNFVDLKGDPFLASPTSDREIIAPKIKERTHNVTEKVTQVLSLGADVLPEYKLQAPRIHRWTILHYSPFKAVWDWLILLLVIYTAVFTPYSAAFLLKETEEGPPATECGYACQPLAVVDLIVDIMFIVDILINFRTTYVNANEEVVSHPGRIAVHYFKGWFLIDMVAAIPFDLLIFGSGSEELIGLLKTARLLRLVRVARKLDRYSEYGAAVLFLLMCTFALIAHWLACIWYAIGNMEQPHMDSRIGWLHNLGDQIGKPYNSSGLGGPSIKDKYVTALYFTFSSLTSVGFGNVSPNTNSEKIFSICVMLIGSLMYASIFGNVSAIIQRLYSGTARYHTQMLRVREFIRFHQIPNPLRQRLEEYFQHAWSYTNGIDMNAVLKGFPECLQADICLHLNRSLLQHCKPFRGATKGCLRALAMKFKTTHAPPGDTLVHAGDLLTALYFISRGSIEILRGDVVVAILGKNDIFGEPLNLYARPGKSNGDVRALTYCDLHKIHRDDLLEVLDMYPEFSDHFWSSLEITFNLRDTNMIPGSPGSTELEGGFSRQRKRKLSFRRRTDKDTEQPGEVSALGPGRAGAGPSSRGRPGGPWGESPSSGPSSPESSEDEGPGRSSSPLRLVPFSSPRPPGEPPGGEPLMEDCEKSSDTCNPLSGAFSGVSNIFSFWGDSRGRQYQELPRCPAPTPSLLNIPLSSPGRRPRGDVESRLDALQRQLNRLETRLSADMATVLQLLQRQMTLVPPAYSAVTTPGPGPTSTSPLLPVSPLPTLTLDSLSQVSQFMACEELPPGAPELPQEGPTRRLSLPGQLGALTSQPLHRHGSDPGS

Compound | hERG [1] | solubility at 24 h [2] | EC50 [3]
Cc1cc(-c2nc(CN3CCNCC3)no2)cc2c1C(=O)N(Cc1ccc(OC(F)(F)F)cc1)C2 [Example 1, 7-Methyl-5-(3-piperazin-1-ylmethyl-[1,2,4]oxadiazol-5-yl)-2-(4-trifluoromethoxybenzyl)-2,3-dihydroisoindol-1-one] | 11.0 µM | 44.9 µM (≈ 21.9 µg/mL) | 
Cc1cc(-c2nc(CN3C[C@@H]4C[C@H]3CN4)no2)cc2c1C(=O)N(Cc1ccc(Cl)cc1)C2 [Example 2, 2-(4-Chloro-benzyl)-5-[3-(2,5-diaza-bicyclo[2.2.1]hept-2-ylmethyl)-[1,2,4]oxadiazol-5-yl]-7-methyl-2,3-dihydro-isoindol-1-one] | 33.0 µM | 336 µM (≈ 151 µg/mL) | 206 nM
Cc1cc(-c2nc(CN3CCNC(C)C3)no2)cc2c1C(=O)N(Cc1ccc(Cl)cc1)C2 (centres unmarked) [Example 3, 2-(4-Chloro-benzyl)-7-methyl-5-[3-(3-methyl-piperazin-1-ylmethyl)-[1,2,4]oxadiazol-5-yl]-2,3-dihydro-isoindol-1-one] | 12.0 µM | 396 µM (≈ 179 µg/mL) | 154 nM
Cc1cc(-c2nc(CN3CCNCC3)no2)cc2c1C(=O)N(Cc1ccc(Cl)cc1)C2 [Example 4, 2-(4-Chloro-benzyl)-7-methyl-5-(3-piperazin-1-ylmethyl-[1,2,4]oxadiazol-5-yl)-2,3-dihydro-isoindol-1-one] | 25.0 µM | > 500 µM | 378 nM
Cc1cc(-c2nc(CN3CCNC[C@@H]3C)no2)cc2c1C(=O)N(Cc1ccc(Cl)cc1)C2 [Example 5, 2-(4-Chloro-benzyl)-7-methyl-5-[3-(2-methyl-piperazin-1-ylmethyl)-[1,2,4]oxadiazol-5-yl]-2,3-dihydro-isoindol-1-one] | 12.6 µM | 384 µM (≈ 174 µg/mL) | 352 nM
Cc1cc(-c2nc(CN3CCNC[C@H]3C)no2)cc2c1C(=O)N(Cc1ccc(Cl)cc1)C2 [Example 6, 2-(4-Chloro-benzyl)-7-methyl-5-[3-(2-methyl-piperazin-1-ylmethyl)-[1,2,4]oxadiazol-5-yl]-2,3-dihydro-isoindol-1-one] | 18.7 µM | > 500 µM | 317 nM
